Legend:
[1] = system: ALS (acetolactate syntase) from barnyardgrass seedlings; test: ALS (acetolactate syntase) inhibition test, barnyardgrass enzyme; type: biochemical; settings: 10,000 ppm (0.5 μg/0.5 ml) of compound; 1 hour at 30° C.; absorbance at 525 nm
Description: (§1) To determine the selectivity in enzyme level between crops and weeds, an ALS inhibition test was conducted using pea as a typical broadleaf crop and barnyardgrass as a representative gramineous weeds.
(§2) After seeds of pea and barnyardgrass were allowed to germinate at 25° C. for 8-14 days in a dark place, partially-purified suspensions (Suspensions A) of acetolactate syntase were separately obtained from the seedlings in accordance with the procedures described in the literature, Plant Physiology, 75, 827-831. In a test tube, 0.5 mg of one of test compounds was weighed, followed by the addition of 0.15 ml of a 20 mM K2 HPO4 solution and 0.25 ml of a reaction substrate medium which consisted of 40 mM of K2 HPO4, 40 mM of sodium pyruvate, 1 mM of TPP, 1 mM of MgCl2 and 20 μM of FAD so that 0.4 ml of a reaction solution (Solution B) was prepared. Added to 0.4 ml of Solution B was 0.1 ml of Suspension A. After the resultant mixture was shaken for 1 hour in a thermostat water bath controlled at 30° C., 50 μl of 6N sulfuric acid were added to terminate the reaction.
(§3) Next, the test tube with the reaction-terminated liquid mixture contained therein was transferred into a thermostat water bath controlled at 60° C. and was heated for 15 minutes. Thereafter, 0.5 ml of a 0.5% creatine solution and 0.5 ml of a 5% alkaline α-naphthol solution were added, and the resultant mixture was maintained at 60° C. for 15 minutes. As a result, the test solution developed a pink-to-red color. After the above operation, the absorbance of the test solution at 525 nm was measured by a spectrophotometer (Absorbance 1 of Test Compound).
(§4) Further, the absorbance (Absorbance 2 of Blank) of a solution obtained by subjecting a portion of Solution B to the above procedures without addition of any test compound and the absorbance (Absorbance 3 of sulfuric acid) of another solution obtained by subjecting another portion of Solution B to the above procedures which using 50 μl of 6N sulfuric acid as a test compound were also measured.

[2] = system: ALS (acetolactate syntase) from pea seedlings; test: ALS (acetolactate syntase) inhibition test, pea enzyme; type: biochemical; settings: 10,000 ppm (0.5 μg/0.5 ml) of compound; 1 hour at 30° C.; absorbance at 525 nm
Description: as §1, §2, §3, §4

[3] = system: Amaranth (Amaranthus viridis); test: Upland soil application test, amaranth; type: in vivo; settings: 1200 h, soil application one day after seeding, 50 g ai/a, wettable powder, fresh weight on 50th day after spray, read-out: Herbicidal effects Amaranth (Amaranthus viridis)
Description: (§5) Resin-made 1/1000-are pots were filled with the soil of an upland field. After they were fertilized, cotton and soybean were seeded and 3 cm soil covering was applied. In addition, amaranth, common lambs-quarters, barnyardgrass, green foxtail, large crabgrass and johnsongrass were seeded and 1 cm soil covering was applied. One day later, a wettable powder prepared from a predetermined amount of each test compound in a similar manner to the procedures described in Formulation Example 1 was diluted with water and then sprayed evenly at an application rate equal to 10 l per are onto the surface of the soil by means of a pressure-operated sprayer. The weeds and crops were allowed to grow in a green house and influence to them were observed on the 50th day after the spray. The degree of damages of each test plant and the degree of injury to each crop were determined by measuring fresh weight in each group and indicated by % calculated according to the following formula. [formula]

[4] = system: common lambsquarters; test: Upland soil application test, common lambsquarters; type: in vivo; settings: Chenopodium album, 1200 h; soil application one day after seeding, 50 g ai/a, wettable powder, fresh weight on 50th day after spray; read-out: Herbicidal effects Common lambquarters
Description: as §5

[5] = system: Barnyardgrass (Echinochloa crusgalli); test: Upland soil application test, barnyardgrass; type: in vivo; settings: Echinochloa crus-galli, 1200 h; soil application one day after seeding, 50 g ai/a, wettable powder, fresh weight on 50th day after spray; read-out: Herbicidal effects Barnyardgrass (Echinochloa crusgalli)
Description: as §5

[6] = system: Foxtail (Setaria viridis); test: Upland soil application test, green foxtail; type: in vivo; settings: 1200 h, soil application one day after seeding, 50 g ai/a, wettable powder, fresh weight on 50th day after spray, read-out: Herbicidal effects Foxtail (Setaria viridis)
Description: as §5

[7] = system: Crabgrass (Digitaria adscendens); test: Upland soil application test, large crabgrass; type: in vivo; settings: 1200 h, soil application one day after seeding, 50 g ai/a, wettable powder, fresh weight on 50th day after spray, read-out: Herbicidal effects Crabgrass (Digitaria adscendens)
Description: as §5

[8] = system: Johnsongrass; test: Upland soil application test, johnsongrass; type: in vivo; settings: Sorghum halepense, 1200 h; soil application one day after seeding, 50 g ai/a, wettable powder, fresh weight on 50th day after spray; read-out: Herbicidal effects Johnsongrass
Description: as §5

[9] = system: Soybean (Glycine max); test: Upland soil application test, crop injury soybean; type: in vivo; settings: soil application one day after seeding, 50 g ai/a, wettable powder, fresh weight on 50th day after spray
Description: as §5

[10] = system: Cotton (Gossypium indicum); test: Upland soil application test, crop injury cotton; type: in vivo; settings: soil application one day after seeding, 50 g ai/a, wettable powder, fresh weight on 50th day after spray
Description: as §5

[11] = system: Amaranth (Amaranthus viridis); test: Upland foliar application test, amaranth; type: in vivo; settings: 960 h, foliar application at stage of 2-3 leaves, 50 g ai/a, emulsion, 40th day after spray, read-out: Herbicidal effects Amaranth (Amaranthus viridis)
Description: as §5
(§6) Resin-made 1/1000-are pots were filled with the soil of an upland field. After they were fertilized, cotton and soybean were seeded and 3 cm soil covering was applied. Five days later, amaranth, common lambsquarters, barnyardgrass, green foxtail, large crabgrass and johnsongrass were seeded and 1 cm soil covering was applied. They were allowed to grow in a green house. When each plant grew to the stage of 2-3 leaves, an emulsion formulated from a predetermined amount of each test compound in a similar manner to the procedures described in Formulation Example 11 was diluted with water and then sprayed at a predetermined application rate by means of a pressure-operated sprayer. The application rate was controlled at 5 l per are. Influence to the crops and weeds were observed on the 40th day after the spray of the herbicides. The results are shown in Table 4 in which the degree of damages of each test plant and the degree of injury to each crop are shown in a similar manner to Test 2.

[12] = system: common lambsquarters; test: Upland foliar application test, common lambsquarters; type: in vivo; settings: Chenopodium album, 960 h; foliar application at stage of 2-3 leaves, 50 g ai/a, emulsion, 40th day after spray; read-out: Herbicidal effects Common lambquarters
Description: as §6

[13] = system: Barnyardgrass (Echinochloa crusgalli); test: Upland foliar application test, barnyardgrass; type: in vivo; settings: Echinochloa crus-galli, 960 h; foliar application at stage of 2-3 leaves, 50 g ai/a, emulsion, 40th day after spray; read-out: Herbicidal effects Barnyardgrass (Echinochloa crusgalli)
Description: as §6

[14] = system: Foxtail (Setaria viridis); test: Upland foliar application test, green foxtail; type: in vivo; settings: 960 h, foliar application at stage of 2-3 leaves, 50 g ai/a, emulsion, 40th day after spray, read-out: Herbicidal effects Foxtail (Setaria viridis)
Description: as §5, §6

[15] = system: Crabgrass (Digitaria adscendens); test: Upland foliar application test, large crabgrass; type: in vivo; settings: 960 h, foliar application at stage of 2-3 leaves, 50 g ai/a, emulsion, 40th day after spray, read-out: Herbicidal effects Crabgrass (Digitaria adscendens)
Description: as §5, §6

[16] = system: Johnsongrass; test: Upland foliar application test, johnsongrass; type: in vivo; settings: Sorghum halepense, 960 h; foliar application at stage of 2-3 leaves, 50 g ai/a, emulsion, 40th day after spray; read-out: Herbicidal effects Johnsongrass
Description: as §6

[17] = system: Soybean (Glycine max); test: Upland foliar application test, crop injury soybean; type: in vivo; settings: foliar application at stage of 2-3 leaves, 50 g ai/a, emulsion, 40th day after spray
Description: as §6

[18] = system: Cotton (Gossypium indicum); test: Upland foliar application test, crop injury cotton; type: in vivo; settings: foliar application at stage of 2-3 leaves, 50 g ai/a, emulsion, 40th day after spray
Description: as §5, §6

[19] = system: johnsongrass emerging from rhizome; test: Application test on johnsongrass emerging from rhizome; type: in vivo; settings: foliar application at stage of 4-5 leaves, application rate of active ingredient 20 (unit not given), emulsion, 50th day after spray
Description: as §5
Resin-made 1/1000-are pots were filled with the soil of an upland field. After they were fertilized, rhizome of johnsongrass were transplanted to the pots and 3 cm soil covering was applied. They were allowed to grow in a green house. When each johnsongrass grew to the stage of 4-5 leaves, an emulsion formulated from a predetermined amount of each test compound in a similar manner to the procedures described in Formulation Example 11 was diluted with water and then sprayed at a predetermined application rate by means of a pressure-operated sprayer. The application rate was controlled at 5 l per are. The effect of each compound against the johnsongrass emerging from its rhizome was observed on the 50th day after the spray of the herbicides. The results are shown in Table 5 in which the herbicidal effect against johnsongrass is shown in a similar manner to Test 2.

Row | Structure (SMILES) | Enzymoreaction inhibition rate (%) Barnyardgrass [1] [%] | Enzymoreaction inhibition rate (%) Pea [2] [%] | pest or weed control at 5000 g/ha [3] [%] | pest or weed control at 5000 g/ha [4] [%] | pest or weed control at 5000 g/ha [5] [%] | pest or weed control at 5000 g/ha [6] [%] | pest or weed control at 5000 g/ha [7] [%] | pest or weed control at 5000 g/ha [8] [%] | Crop injury Soybean (Glycine max) [9] [%] | Crop injury Cotton (Gossypium indicum) [10] [%] | pest or weed control at 5000 g/ha [11] [%] | pest or weed control at 5000 g/ha [12] [%] | pest or weed control at 5000 g/ha [13] [%] | pest or weed control at 5000 g/ha [14] [%] | pest or weed control at 5000 g/ha [15] [%] | pest or weed control at 5000 g/ha [16] [%] | Crop injury Soybean (Glycine max) [17] [%] | Crop injury Cotton (Gossypium indicum) [18] [%] | Herbicidal effect against johnsongrass emerging from rhizome [19] [%]
1 | COc1cc(OC)nc(Oc2ccccc2C(OC(C)C)OC(C)C)n1 [Compound No. 2] | 100 | 0 | 80 | 85 | 80 | 85 | 80 | 100 | 0 | 0 | 100 | 80 | 80 | 100 | 85 | 100 | 0 | 0 | 95
2 | COC(=O)c1ccccc1Oc1nc(OC)cc(OC)n1 [Comp. Comp'd A, reference compound] | 73 | 72 | 100 | 100 | 100 | 100 | 100 | 100 | 100 | 100 | 100 | 100 | 100 | 100 | 100 | 100 | 100 | 100 | 60
